Measured values reported in US10494341B2, “Compound containing indoleacetic acid core structure and use thereof” (Beijing An Jian Xi Bio-Medical Technology Co., Ltd., priority 2015, dated 2019).

Tests used:
COX-2 = target: T1, COX-2 (Rattus norvegicus, UniProt P35355); test: COX-2 activity assay (PGE2 in gastric mucosa, EIA) in LPS-treated rats; assay type: in vivo; conditions: gavage, LPS 2.5 mg/kg-activated
T1 construct: from tissue; host or cells: rat gastric mucosa (LPS-treated rats, in vivo dosing)
T1 sequence (P35355 18-604): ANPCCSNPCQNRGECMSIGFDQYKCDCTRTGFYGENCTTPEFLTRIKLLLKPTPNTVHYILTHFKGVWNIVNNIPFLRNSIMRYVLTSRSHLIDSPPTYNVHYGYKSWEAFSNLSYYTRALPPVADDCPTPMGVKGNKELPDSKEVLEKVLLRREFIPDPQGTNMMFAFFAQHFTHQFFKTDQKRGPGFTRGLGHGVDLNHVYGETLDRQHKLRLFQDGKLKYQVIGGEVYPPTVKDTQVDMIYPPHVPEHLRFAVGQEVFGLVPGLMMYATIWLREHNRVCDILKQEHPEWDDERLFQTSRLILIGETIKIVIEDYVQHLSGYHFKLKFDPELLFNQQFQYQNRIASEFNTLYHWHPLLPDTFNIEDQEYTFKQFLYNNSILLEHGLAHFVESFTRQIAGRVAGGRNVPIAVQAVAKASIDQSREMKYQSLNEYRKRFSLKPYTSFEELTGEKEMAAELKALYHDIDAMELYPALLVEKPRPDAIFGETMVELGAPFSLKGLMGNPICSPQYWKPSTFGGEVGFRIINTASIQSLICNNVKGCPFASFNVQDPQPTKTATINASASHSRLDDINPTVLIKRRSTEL
Procedure: (2) COX-2 activity assay: The assay was similar to that of COX-1, except that LPS was injected intraperitoneally to rats at a dose of 2.5 mg/kg to activate COX-2 in this experiment. After administration, the content of PGE2 in gastric mucosa was measured using an enzyme-linked immunosorbent assay (EIA) kit (operated according to the instructions provided by the manufacturer) and converted to COX2 activity.
(§1) The percentage inhibition rate against COX-1 (FIG. 1a—gastric mucosa, FIG. 1b—myocardium) and COX-2 (FIG. 1c) and the IC50 values (Table 1a—gastric mucosa; Table 1b—myocardium) of each tested pharmaceutical compound were calculated from the above data.

COX-1 in gastric mucosa = target: T2, COX-1 in gastric mucosa (Rattus norvegicus, UniProt Q63921); test: COX-1 activity assay, gastric mucosa (thromboxane B2 EIA) after oral dosing of A23187-treated rats; assay type: in vivo; conditions: for reduction of inhibition against COX-1 in gastric mucosal tissue compared with intermediate I: gavage 1, 3, 9 mg/kg/day, intermediate I 0.5 mg/kg, 6 h after dosing; for effect of inhibiting COX-1 in gastric mucosa: gavage, A23187-activated
T2 construct: from tissue; host or cells: rat gastric mucosa (in vivo dosing, tissue homogenate supernatant)
T2 sequence (Q63921 27-602): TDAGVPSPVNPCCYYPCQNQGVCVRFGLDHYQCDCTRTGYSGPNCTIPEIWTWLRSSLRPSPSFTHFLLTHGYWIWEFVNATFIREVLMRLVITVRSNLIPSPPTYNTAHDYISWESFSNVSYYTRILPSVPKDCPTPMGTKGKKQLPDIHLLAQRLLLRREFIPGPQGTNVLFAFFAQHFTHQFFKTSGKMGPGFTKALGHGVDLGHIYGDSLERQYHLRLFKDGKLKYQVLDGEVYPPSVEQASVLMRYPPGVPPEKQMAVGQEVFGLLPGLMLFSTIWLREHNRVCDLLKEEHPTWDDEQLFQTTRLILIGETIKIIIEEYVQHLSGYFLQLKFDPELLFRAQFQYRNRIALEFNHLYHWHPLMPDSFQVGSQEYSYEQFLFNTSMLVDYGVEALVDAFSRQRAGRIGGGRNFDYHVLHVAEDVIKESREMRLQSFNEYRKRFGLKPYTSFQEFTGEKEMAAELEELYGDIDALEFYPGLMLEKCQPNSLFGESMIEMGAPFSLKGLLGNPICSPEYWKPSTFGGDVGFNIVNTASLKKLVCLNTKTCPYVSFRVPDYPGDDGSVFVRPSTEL
Procedure: (1) COX-1 activity assay: 2 hours after intraperitoneal injection of calcium ionophore A23187 (50 mg/kg) to rats, each of the compounds a, b, c, d, e and f was orally administered (gavage) to three rats at a dose of 1, 3 and 9 mg/kg/day, respectively; the intermediate I was orally administered as a control drug to three rats at a dose of 0.5 mg/kg; and additional three rats were only administered with COX-1 activator, the calcium ionophore A23187, and were not administered with the compounds of the present invention. 6 hours after the compound of the present invention was administered, the animals were sacrificed, gastric mucosal tissue and myocardial tissue were collected, homogenized, and subjected to high-speed centrifugation (12,000 rpm), and the supernatant was collected for use. The amount of thromboxane B2 was measured using an enzyme-linked immunosorbent assay (EIA) kit (operated in accordance with the instructions provided by the manufacturer) and converted to COX1 activity.
as §1

mice (C57BL/6J) = test: Survival rate of mice irradiated by γ-rays; assay type: in vivo; conditions: 30th day after 8.75 Gy γ-rays, 16 mice per group; for number of survived mice: intermediates each 3 mg/kg/day gavage; for survival rate: compounds 6 mg/kg/day gavage, amifostine 400 mg/kg/day i.p.
Procedure: In this experiment, 10-week-old male mice (C57BL/6J) weighing about 20 g were used as subjects, and 16 mice were taken as a group. The mice were divided into the following groups: 1. no γ-ray+no drug; 2. γ-ray+no drug; 3. γ-ray+amifostine; 4. γ-ray+intermediate I+intermediate II; 5. γ-ray+compound a; 6. γ-ray+compound b; and 7. γ-ray+compound d. Firstly, each group of mice was administered with a protective agent, and the specific amounts were as follows: compound a, b and d: 6 mg/kg/day (8.1 μM), amifostine: 400 mg/kg/day (1.5 mM), intermediate I+Intermediate II: each 3 mg/kg/day (8.1 μM). Except that amifostine was intraperitoneally injected (30 minutes before irradiation, amifostine was administered), the other protective agents were administered by gavage. 12 hours after administration, systemic irradiation was performed using cobalt 60γ-rays at a dose of 8.75Gy and a dose rate of 0.35 Gy/min for 25 minutes, with the radiation source 80 cm away from the mice. The mice were irradiated once, and continuously administered with drugs once daily for 10 days after irradiation. The number of survival mice was recorded. The percentage obtained by dividing the number of survival mice by the total number of mice in the experimental group (16 mice) is survival rate of mice, and the results are summarized in FIG. 7. […] It is noteworthy that in the experimental group using intermediate I+intermediate II, only one mouse is survived.

peripheral leukocytes = test: Protection against blood cell (leukocyte) damage induced by paclitaxel; assay type: in vivo; conditions: mice, paclitaxel; amifostine 400 mg/kg/day i.p.
Procedure: In this experiment, 10-week-old male mice (C57BL/6J) weighing about 20 grams were used as subjects, and 6 mice were taken as a group. The mice were divided into 5 groups: 1. Paclitaxel; 2. Paclitaxel+amifostine; 3. Paclitaxel+intermediate I+intermediate II; 4. paclitaxel+compound a; and 5. paclitaxel+compound b. Firstly, each group of mice was administered with a protective agent, and the specific amounts were as follows: compounds a and b: each 6 mg/kg/day (8.1 μM), amifostine: 400 mg/kg/day (1.5 mM), intermediate I+Intermediate II: each 3 mg/kg/day (8.1 μM). Except that amifostine was intraperitoneally injected (30 minutes before administering Paclitaxel, amifostine was administered), the other protective agents were administered by gavage (once a day, 25 times continuously). 12 hours after the compound a and the corresponding protective agents were administered, Paclitaxel was intraperitoneally injected (10 mg/kg/day, once every 3 days, 9 times continuously), and 7, 14, 21, 28 days later, blood of mice was drawn respectively. The number of leukocytes was analyzed.

[1] = tested on: colon cancer cells (SW480); conditions: SW480 tumors in nude mice; for effect on tumor / on sensitivity of tumor to doxorubicin: doxorubicin 2.5 mg/kg i.p. every 2 days for 5 weeks, agents daily
Procedure: The experiment was carried out using compound a in this example. Under sterile conditions, a suspension of colon cancer cells (SW480) in logarithmic growth phase (cell concentration was adjusted to 1×10^7/mL with physiological saline) was inoculated subcutaneously to 5 to 6 weeks old balb/c female nude mice on the right rear back, and each nude mice was inoculated at an amount of 0.3 ml, i.e. the number of cells contained was 3×10^6 per each mouse. 10 days later, subcutaneous transplanted tumor of 100-250 mm^3 appeared. The nude mice with tumor were randomly divided into several groups, each containing 6 mice: (1) control group; (2) doxorubicin group; (3) doxorubicin+amifostine; (4) doxorubicin+Celecoxib+intermediate II; (5) doxorubicin+intermediate I+intermediate II; (6) doxorubicin+low-dose compound a (6 mg/kg/day); (7) doxorubicin+high-dose compound a (15 mg/kg/day). Firstly, the following compounds were administered to each group of nude mice with tumor according to the following doses: intermediate I and intermediate II (3 mg/kg/day respectively), amifostine (400 mg/kg/day), Celecoxib (6 mg/kg/day). Except that amifostine was subcutaneously injected (30 minutes before irradiation), the other protective agents were administered by gavage. The above drugs were administered every day for 5 weeks continuously. 12 hours after the administration, doxorubicin (2.5 mg/kg) was injected intraperitoneally, and it was administered once every 2 days for 5 weeks. During the dosing period, the body weight of the nude mice was measured every two days with a precision electronic balance. The growth of the tumor and whether or not red and swelling and rupture occur were observed every day after inoculation. After tumor formation, the surface morphology and activity of the transplanted tumor were examined, and the longest diameter (a) and the shortest diameter (b) of the tumor nodules were measured every 3 days with a vernier caliper. […] 21 days after administration of doxorubicin, the tail vein blood of mice was collected to perform leukocyte count and blood biochemical index analysis. The tumor tissue and normal peripheral tissues were taken on the last day of treatment, and the content of the intermediate I therein was measured by HPLC (FIG. 9a). At the same time, paraffin sections were made, the occurrence of apoptosis was detected by terminal labeling (FIG. 9b), and the relative survival percentages of normal tissue and tumor tissue were calculated (the results are summarized in FIG. 9b).

HT-29 cells = test: HT-29 transplanted tumors in nude mice, compound a in combination with doxorubicin; assay type: in vivo; conditions: Doxorubicin 2 mg/kg/week i.p. or compound a 3 mg/kg/day gavage, 4 weeks
Procedure: Compound a was administered by gavage once a day for 4 weeks continuously; Doxorubicin was injected intraperitoneally once a week for 4 weeks. Body weight and tumor volume of animals were measured and calculated according to Example 9.

A549 cells = test: A549 transplanted tumors in nude mice, compound used alone; assay type: in vivo; conditions: A549; cisplatin 5 mg/kg/week i.p.; compound a 5 and 25 mg/kg/day; intermediates 12.5 mg/kg/day each
Procedure: Except cisplatin (intraperitoneal injection, once a week), all compounds were administered by gavage, once a day for 5 weeks continuously.

SMILES: COC1=C(OC)C(=O)C(CCCCCCCCCCOC(=O)CC2=C(C)C(=Cc3ccc([S+](C)[O-])cc3)c3cc(F)ccc32)=C(C)C1=O (centres unmarked) [compound c]
- inhibition against COX-2 (COX-2): weaker than those of compounds a and b
- reduction of inhibition against COX-1 in gastric mucosal tissue compared with intermediate I (COX-1 in gastric mucosa): ~700 fold
- effect of inhibiting COX-1 in gastric mucosa (COX-1 in gastric mucosa): almost lose the effect of inhibiting COX-1 in gastric mucosa

SMILES: NCCCNCCSP(=O)(O)O [amifostine, reference compound]
- number of survived mice (mice (C57BL/6J)): 10 mice
- survival rate (mice (C57BL/6J)): 62.5%
- protective effect on leukocytes at the early stage of simulated chemotherapy (peripheral leukocytes): slight better than that of the compounds a and b
- effect on tumor / on sensitivity of tumor to doxorubicin [1]: significantly interferes with the inhibitory effect of doxorubicin on the tumor
- protection of normal tissue and cells from doxorubicin ([1]; with doxorubicin): effectively protects the normal tissue

SMILES: COc1cccc2c1C(=O)c1c(O)c3c(c(O)c1C2=O)C[C@@](O)(C(=O)CO)C[C@@H]3O[C@H]1C[C@H](N)[C@H](O)[C@H](C)O1 [Doxorubicin]
- inhibition of the tumor, administered alone (HT-29 cells): only slightly inhibited
- effect on tumor / on sensitivity of tumor to doxorubicin [1]: mild inhibitory effect
- death of animals during treatment ([1]; doxorubicin 2.5 mg/kg i.p., 6 mice per group): three

SMILES: COC1=C(OC)C(=O)C(COC(=O)Cc2c(C)n(C(=O)c3ccc(Cl)cc3)c3cc(OC)ccc23)=C(C)C1=O [compound f]
- inhibition against COX-2 (COX-2): weaker than those of compounds a and b
- reduction of inhibition against COX-1 in gastric mucosal tissue compared with intermediate I (COX-1 in gastric mucosa): ~700 fold
- effect of inhibiting COX-1 in gastric mucosa (COX-1 in gastric mucosa): almost lose the effect of inhibiting COX-1 in gastric mucosa

SMILES: COc1c(O)c(C)c(CCCCCCCCCCOC(=O)CC2=C(C)C(=Cc3ccc([S+](C)[O-])cc3)c3cc(F)ccc32)c(O)c1OC (centres unmarked) [compound d]
- number of survived mice (mice (C57BL/6J)): 11 mice
- survival rate (mice (C57BL/6J)): 68.75%
- inhibition against COX-2 (COX-2): weaker than those of compounds a and b
- reduction of inhibition against COX-1 in gastric mucosal tissue compared with intermediate I (COX-1 in gastric mucosa): ~700 fold
- effect of inhibiting COX-1 in gastric mucosa (COX-1 in gastric mucosa): almost lose the effect of inhibiting COX-1 in gastric mucosa

SMILES: N.N.[Cl][Pt][Cl] [cisplatin, reference compound]
- inhibitory effect on the tumor (A549 cells): only mild inhibitory effect
